Patent US8877968B2, “Melanocortin receptor modulators, process for preparing them and use there in human medicine and cosmetics” (Galderma Research & Development, priority 2008, dated 2014)

Key:
[1] = Test of metabolic stability in the presence of liver microsomes; format: in vitro ADME; details: liver microsomes 0.5 mg/ml, product 10 μM, 37° C., pH 7.4, NADP/G6P cofactors; disappearance of parent by LC/MS/MS; species not given; read-out: t½
Experimental: Test of Metabolic Stability in the Presence of Liver Microsomes
The microsomes are cellular endoplasmic reticulum vesicles obtained after purification, from liver tissue. They contain membrane enzymes (Cytochromes P450) involved in oxidative metabolism (phase I).
In a buffered reaction medium at 37° C., the test product is incubated in the presence of microsomes from different species. Samples of the incubate are taken at different times (kinetics). Quantification by LC/MS/MS analysis makes it possible to measure the disappearance of parent product associated with the phase I liver metabolism.
The products are dissolved at 10 mM in DMSO. They are incubated at 10 μM in the presence of microsomes (0.5 mg/ml). The reaction medium is formed from 100 mM phosphate buffer at pH 7.4, G6PDH (0.4 U/ml), 0.01% Pluronic acid and cofactors MgCl2 5 mM, NADP and G6P (1.3 mM and 3.3 mM, respectively). Samples of the reaction medium are taken at 0, 5, 10, 15, 30 and 60 minutes. At each time, the enzymatic reaction is stopped by adding methanol. After centrifugation (3000 rpm, 30 minutes), the samples are analysed by LC/MS/MS. The concentration of parent product remaining is quantified over time and allows a half-life to be calculated for each product.

[2] = Log P and Log D by HPLC-MS (octanol-water); format: physicochemical; details: octanol/water (50/50 v/v); octanol-water 50/50, pH 6.5, LC/MS/MS
Text: Lod P and Loci D by HPLC-MS
Log P, also known as Log Kow, (octanol/water partition coefficient) enables characterization of the lipophilic nature of a molecule. Log P=Log(Coct/Cwater)
In contrast with Log P, Log D is a determination of a given pH.
Preparation of the Samples
The molecule at 10^−2M in DMSO is placed in an octanol-water mixture (50/50 volume/volume).
After stirring for ten hours, the sample is centrifuged and the two phases are separated in order to be analysed. The octanol phase is diluted in methanol before assay.
The concentrations of test molecule present in each phase are determined by an LC/MS/MS analysis. Log P=Log(areaoct*Dilution factor/areaaq)

[3] = system: B6.Cg-Ay mice; experiment: Modulation of the pigmentation of hair during regrowth after depilation in mice; format: in vivo; details: female B6.Cg-Ay mice; 5% in ethanol applied topically every day for 11 days after depilation; chromametry 19 days after depilation; smaller L = darker hair
Text: FIG. 2 is a bar graph showing the modulation of the pigmentation of hair during regrowth after depilation in mice, where the L value measures color on a scale where the smaller the value of L, the darker the hair, for two compounds of the invention diluted in ethanol and applied topically each day for 11 days after depilation.
Modulation of the Pigmentation of Hair During Regrowth After Depilation in Mice: (Results in Table of FIG. 2)
Female 8-week-old B6.Cg-Ay mice are shaved and then subjected to depilation with cold wax under gaseous anaesthesia to synchronize all the hair follicles at the start of the anagenic phase.
After depilation, the MC1R agonists diluted to 5% in ethanol are applied topically every day to the depilated area for 11 days. Nineteen days after depilation, the pigmentation of the hairs is measured by chromametry on the area of regrowth: the L value measures the colour on a scale ranging from black to white (the smaller the value of L, the darker the hair).

[4] = biological target: T1, hMC1R (Homo sapiens, UniProt Q01726); experiment: Transactivation test (CRE-Luc luciferase, agonist mode); format: cell-based; details: HEK293 transfected with pCRE-Luc and hMC1R; products tested alone (agonist), 6 hours; normalized to NDP-MSH 10 nM = 100%; read-out: EC50 hMC1-R
T1 construct: expressed in transfected cells; host or cells: HEK293
T1 sequence (Q01726 whole entry): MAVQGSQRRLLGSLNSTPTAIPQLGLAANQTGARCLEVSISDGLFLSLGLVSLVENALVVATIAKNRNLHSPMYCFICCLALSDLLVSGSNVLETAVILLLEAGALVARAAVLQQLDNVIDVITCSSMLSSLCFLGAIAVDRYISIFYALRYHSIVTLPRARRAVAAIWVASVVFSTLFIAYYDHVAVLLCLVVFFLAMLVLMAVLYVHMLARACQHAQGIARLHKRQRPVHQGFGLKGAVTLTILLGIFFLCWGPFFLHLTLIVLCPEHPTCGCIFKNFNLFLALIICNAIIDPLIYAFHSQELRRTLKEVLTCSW
Experimental: The lines HEK293 are transfected with vectors pCRE-Luc and hMC1R. The cells are cultured at 37° C. and 5% CO2, in DMEM medium supplemented with 10% foetal calf serum.
In the presence of an activator (agonist), the melanocortin receptor will activate the cAMP pathway, which, via the vector CRE-Luc, will lead to the synthesis of luciferase. After addition of a lysis buffer containing a luminescent luciferase substrate, the luminescence proportional to the degree of activation or inhibition of receptor may be measured.
The products are dissolved at 10 mM in DMSO. They are tested as a response dose at 0.1% of DMSO final. The range comprising 10 points and a zero starts at 10 μM with four-fold dilutions. To test agonists, the products are tested alone. To determine the antagonist behaviour, the products of interest are tested in the presence of 1 nM NDP-MSH (reference agonist). The cells are inoculated at a rate of 5000 cells per well (384-well plate) in serum-free DMEM medium and incubated overnight at 37° C. and 5% CO2.
The products and the reference ligand (NDP-MSH) are added the following day and the plates are reincubated for 6 hours at 37° C. and 5% CO2. After adding the lysis buffer containing luciferin, the plates are read in a Top-Count machine. […] An EC50 is calculated for each product using the XLFit software. […]

SMILES | half-life at 10 μM [1] [min] | logD at 10 h [2] | Value of L at D19, Mean [3] | EC50 [4] [nM]
CCCC(=O)C1(C2CCCCC2)CCN(C(=O)[C@@H](Cc2ccc(OC)cc2)NC(=O)NCCc2c[nH]cn2)CC1 [Compound 40, 1-[(R)-2-(4-Butyryl-4-cyclohexylpiperidin-1-yl)-1-(4-methoxybenzyl)-2-oxoethyl]-3-[2-(1H-imidazol-4-yl)ethyl]urea] | 3 to 4 | 4.8 | 31.00 | 120
CCOC(=O)C1(C2CCCCC2)CCN(C(=O)[C@@H](Cc2ccc(OC)cc2)NC(=O)NCCc2c[nH]cn2)CC1 [Compound 34, Ethyl 4-cyclohexyl-1-[(R)-2-{3-[2-(1H-imidazol-4-yl)ethyl]-ureido}-3-(4-methoxyphenyl)propionyl]piperidine-4-carboxylate] | 3 to 4 | 4 | 27.42 | 60
